Measurements from patent US8587857B2, “Electro-wetting display device and non-polar color solution thereof” (Industrial Technology Research Institute, priority 2010, dated 2013).

Assay: solubility of dye in dodecane non-polar solvent, with or without trimethylbenzene (TMB) improvement agent
Format: physicochemical
Description: For example, when a red dye (for example, the C.I. solvent red 164) is dissolved in a dodecane non-polar solvent, a solubility thereof is about 4 wt %.
For another example, when a blue dye (for example, the C.I. solvent blue 98) is dissolved in the dodecane non-polar solvent, a solubility thereof is about 8 wt %.

## C.I. solvent blue 98
Dye dissolved in dodecane non-polar solvent added with trimethylbenzene (TMB) improvement agent
  solubility: 21.5 wt %
Dye dissolved in dodecane non-polar solvent, no improvement agent
  solubility: about 8 wt %
